According to publication doi:10.1101/2020.02.18.954917v1 (biorxiv, 2020):

Legend:
[1] = molecular target: T1, Them1 StarD (Them1 START domain) (Homo sapiens, UniProt Q8WXI4); experiment: differential scanning fluorimetry, SYPRO orange; type: binding; conditions: 10 μM protein, 50 μM ligand, 2% ethanol
T1 sequence (Q8WXI4 339-594 isoform Q8WXI4-2): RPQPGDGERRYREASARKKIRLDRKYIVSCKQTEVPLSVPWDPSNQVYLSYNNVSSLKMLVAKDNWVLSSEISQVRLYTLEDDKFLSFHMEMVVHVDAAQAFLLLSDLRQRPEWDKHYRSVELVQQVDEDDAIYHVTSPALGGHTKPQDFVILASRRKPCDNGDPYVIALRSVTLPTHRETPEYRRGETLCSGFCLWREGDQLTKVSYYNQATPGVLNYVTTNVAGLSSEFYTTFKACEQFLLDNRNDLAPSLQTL

[2] = molecular target: T1, Them1 StarD (Them1 START domain); experiment: microscale thermophoresis, RED-tris-NTA labelled His-tagged StarD; type: binding

Tm decrease [1]	Kd [2]	Structure (SMILES)
~ 5 °C		CCCCCCCC/C=C\CCCCCCCC(=O)OC[C@@H](O)COP(=O)([O-])OCC[N+](C)(C)C [18:1 LPC]
	70.8 µM	CCCCCCCCCCCCCC(=O)O [myristic acid]
	45.9 µM	CCCCCCCCCCCCCCCC(=O)O [palmitic acid]
	9.5 µM	CCCCCCCCCCCCCCCCCC(=O)O [stearic acid]
